pEC50: −log10 of the molar value.
target: T1, human GLP-1 receptor (Homo sapiens, UniProt P43220); assay: GLP-1R cAMP Assay (HitHunter cAMP accumulation); type: cell-based; details: cAMP accumulation, CHO cells stably overexpressing human GLP-1 receptor, 30 min treatment; read-out: EC50
T1 construct: expressed in transfected cells
Procedure: cAMP accumulation was measured in Chinese hamster ovary (CHO) cells stably overexpressing the human GLP-1 receptor using the HitHunter cAMP Assay for Small Molecules Kit (Eurofins). Briefly, cells were grown in Ham's F12 Nutrient Mix with 10% FBS, and lifted with Cell Dissociation Buffer, Enzyme free, PBS based (ThermoFisher). Cells were pelleted, and resuspended in Hank's buffered saline solution with 10 mM HEPES, and 625 μM 3-isobutyl-1-methylxanthine. The anti-cAMP antibody reagent was then added to cells at a 1:2 ratio and 5 μL of mixture was seeded in 384-well small volume white assay plates, at 10,000 cells/well. Cells were then treated with 50 nL compound using an ECHO 550 acoustic dispenser (Labcyte) in a 20-point dose response format in triplicate for 30 min. Cells were then lysed, and detection reagents added according to the manufacturer's protocol. After overnight incubation, luminescence was measured using a Perkin Elmer Envision plate reader. Dose response curves were analyzed using GraphPad Prism 9.0. […]

T1 sequence (P43220 24-463): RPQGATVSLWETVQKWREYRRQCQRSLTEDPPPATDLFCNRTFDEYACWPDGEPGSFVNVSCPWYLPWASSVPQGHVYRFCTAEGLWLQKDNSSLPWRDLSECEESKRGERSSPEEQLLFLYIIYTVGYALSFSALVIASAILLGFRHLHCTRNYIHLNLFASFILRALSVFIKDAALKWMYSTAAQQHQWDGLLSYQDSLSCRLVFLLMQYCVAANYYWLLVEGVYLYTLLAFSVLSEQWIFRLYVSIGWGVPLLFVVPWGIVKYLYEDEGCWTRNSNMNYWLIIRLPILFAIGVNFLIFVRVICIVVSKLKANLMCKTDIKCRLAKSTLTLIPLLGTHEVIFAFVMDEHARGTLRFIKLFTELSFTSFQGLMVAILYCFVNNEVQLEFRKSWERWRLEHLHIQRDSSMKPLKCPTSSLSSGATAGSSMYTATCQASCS

pEC50, 6.30 to 7.30:
O=C(O)c1ccc2nc(CN3CC[C@H](c4ccc(F)c(COc5ccc(Cl)cc5F)c4)C3)n(C[C@@H]3CCO3)c2c1 [Compound 448, 2-{[(3R)-3-{3-[(4-chloro-2-fluorophenoxy)methyl]-4-fluorophenyl}pyrrolidin-1-yl]methyl}-1-{[(2S)-oxetan-2-yl]methyl}-1H-1,3-benzodiazole-6-carboxylic acid]

pEC50, > 7.30:
O=C(O)c1cc(F)c2nc(CN3CCC(c4nc(COc5ccc(Cl)cc5F)ccc4F)C3)n(C[C@@H]3CCO3)c2c1 (stereo partly drawn) [Compound 457, 2-[(3-{6-[(4-chloro-2-fluorophenoxy)methyl]-3-fluoropyridin-2-yl}pyrrolidin-1-yl)methyl]-4-fluoro-1-{[(2S)-oxetan-2-yl]methyl}-1H-1,3-benzodiazole-6-carboxylic acid]
N#CCC1(Cn2c(Cc3ccc(Oc4ccnc(COc5ccc(C#N)cc5F)n4)cc3F)nc3ccc(C(=O)O)cc32)CC1 [Compound 468, 2-{[4-({2-[(4-cyano-2-fluorophenoxy)methyl]pyrimidin-4-yl}oxy)-2-fluorophenyl]methyl}-1-{[1-(cyanomethyl)cyclopropyl]methyl}-1H-1,3-benzodiazole-6-carboxylic acid]
O=C(O)c1cc(F)c2nc(CN3CC[C@H](Oc4cccc(COc5ccc(Cl)cc5F)c4)C3)n(C[C@@H]3CCO3)c2c1 [Compound 351, 2-{[(3S)-3-{3-[(4-chloro-2-fluorophenoxy)methyl]phenoxy}pyrrolidin-1-yl]methyl}-4-fluoro-1-{[(2S)-oxetan-2-yl]methyl}-1H-1,3-benzodiazole-6-carboxylic acid]
C[C@H]1[C@@H](Oc2ccnc(COc3ccc(Cl)cc3F)n2)CN1Cc1nc2ccc(C(=O)O)cc2n1C[C@@H]1CCO1 [Compound 547, 2-{[(2S,3S)-3-({2-[(4-chloro-2-fluorophenoxy)methyl]pyrimidin-4-yl}oxy)-2-methylazetidin-1-yl]methyl}-1-{[(2S)-oxetan-2-yl]methyl}-1H-1,3-benzodiazole-6-carboxylic acid]
CCn1cncc1Cn1c(CN2C[C@H](Oc3cccc(COc4ccc(Cl)cc4Cl)c3)[C@@H]2C)nc2ccc(C(=O)O)cc21 [Example 233, 2-(((2S,3S)-3-(3-((2,4-Dichlorophenoxy)methyl)phenoxy)-2-methylazetidin-1-yl)methyl)-1-((1-ethyl-1H-imidazol-5-yl)methyl)-1H-benzo[d]imidazole-6-carboxylic acid]
O=C(O)c1cc(F)c2nc(CN3CC[C@@H](c4ccc(F)c(COc5ccc(Cl)cc5F)n4)C3)n(C[C@@H]3CCO3)c2c1 [Compound 453, 2-{[(3R)-3-{6-[(4-chloro-2-fluorophenoxy)methyl]-5-fluoropyridin-2-yl}pyrrolidin-1-yl]methyl}-4-fluoro-1-{[(2S)-oxetan-2-yl]methyl}-1H-1,3-benzodiazole-6-carboxylic acid]
Cc1cc(Oc2ccnc(COc3ccc(C#N)cc3F)n2)ccc1Cc1nc2c(F)cc(C(=O)O)cc2n1C[C@@H]1CCO1 [Compound 540, (S)-2-(4-((2-((4-Cyano-2-fluorophenoxy)methyl)pyrimidin-4-yl)oxy)-2-methylbenzyl)-4-fluoro-1-(oxetan-2-ylmethyl)-1H-benzo[d]imidazole-6-carboxylic acid]
N#Cc1cc(F)ccc1OCc1cc([C@@H]2CCN(Cc3nc4ccc(C(=O)O)cc4n3C[C@@H]3CCO3)C2)ccc1F [Compound 447, 2-{[(3S)-3-{3-[(2-cyano-4-fluorophenoxy)methyl]-4-fluorophenyl}pyrrolidin-1-yl]methyl}-1-{[(2S)-oxetan-2-yl]methyl}-1H-1,3-benzodiazole-6-carboxylic acid]
N#CCC1(Cn2c(CN3CC=C(c4ccc(F)c(COc5ccc(Cl)cc5F)n4)C3)nc3ccc(C(=O)O)cc32)CC1 [Compound 429, 2-[(3-{6-[(4-chloro-2-fluorophenoxy)methyl]-5-fluoropyridin-2-yl}-2,5-dihydro-1H-pyrrol-1-yl)methyl]-1-{[1-(cyanomethyl)cyclopropyl]methyl}-1H-1,3-benzodiazole-6-carboxylic acid]

Reference: patent US20220396569A1 (Carmot Therapeutics, Inc., priority 2021, published 2022)
